We go through 24 compounds from US20260207602A1, “EGFR INHIBITORS” (Blueprint Medicines Corporation, priority 2022, published 2026).

Broadly, the IC50 is the concentration at which inhibition is half-maximal.

One assay addresses T1, EGFR L858R (Homo sapiens, UniProt P00533, L858R).
T1 construct: purchased SignalChem E10-122BG
Kind of assay: Biochemical EGFR inhibition assay (Caliper mobility shift), EGFR L858R. The note with it: biochemical Caliper mobility shift assay, EGFR L858R enzyme; read-out: Enz EGFR L858R IC50. Summed up: (§1)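 Recombinant EGFR mutant phosphorylates 2.5 μM 5-FAM peptide at 1.0 mM ATP or ATP Km, in 100 mM HEPES pH 7.5, 10 mM MgCl2, 1 mM DTT, 1% DMSO, 25 °C to 10–20% conversion, EDTA stop. Caliper mobility shift separation; apparent IC50 from percent activity versus log concentration.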

Another assay addresses T2, EGFR (d746-750) (Homo sapiens, UniProt P00533, DEL746-750).
T2 construct: purchased SignalChem E10-122JG
Kind of assay: Biochemical EGFR inhibition assay (Caliper mobility shift), EGFR (d746-750). Particulars: biochemical Caliper mobility shift assay, EGFR Exon 19-del enzyme; read-out: Enz EGFR Exon 19-del IC50. Summed up:
as §1

For assay [1], the target named is intracellular phosphorylation of EGFR (Tyr1068) in PC-9 cells (Homo sapiens, UniProt P00533, DEL746-750). Kind of assay: PC-9 pEGFR AlphaLISA assay. The class given is cell-based. The note with it: 4 hours incubation, read-out: Phos EGFR PC9 IC50. Summed up:
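PC-9 cells (EGFR del746-750) in phenol-free DMEM/10% FBS, adhered overnight, then exposed to 10-point 4-fold compound dilutions for 4 h at 37 °C. Lysates assayed for pEGFR Tyr1068 by AlphaLISA SureFire Ultra; IC50 from percent pEGFR inhibition vs log concentration.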

Molecules are shown by their SMILES.

T2 sequence (P00533 with tags, fused parts or gaps DEL746-750 limits assumed): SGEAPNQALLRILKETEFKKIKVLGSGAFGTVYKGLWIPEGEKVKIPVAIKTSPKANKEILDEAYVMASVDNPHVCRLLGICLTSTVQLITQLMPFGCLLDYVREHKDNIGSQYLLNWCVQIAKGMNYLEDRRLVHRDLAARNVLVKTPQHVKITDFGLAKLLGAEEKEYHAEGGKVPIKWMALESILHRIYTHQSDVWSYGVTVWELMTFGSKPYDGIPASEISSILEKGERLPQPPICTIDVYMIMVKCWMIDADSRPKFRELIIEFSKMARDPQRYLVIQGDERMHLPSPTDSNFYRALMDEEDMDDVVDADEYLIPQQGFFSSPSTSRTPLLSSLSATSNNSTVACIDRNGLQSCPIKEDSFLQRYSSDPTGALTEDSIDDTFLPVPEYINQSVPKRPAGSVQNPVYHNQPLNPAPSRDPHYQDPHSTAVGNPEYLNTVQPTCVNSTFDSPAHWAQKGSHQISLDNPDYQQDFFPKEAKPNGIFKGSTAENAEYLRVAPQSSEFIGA
intracellular phosphorylation of EGFR (Tyr1068) in PC-9 cells, sequence (P00533 with tags, fused parts or gaps DEL746-750): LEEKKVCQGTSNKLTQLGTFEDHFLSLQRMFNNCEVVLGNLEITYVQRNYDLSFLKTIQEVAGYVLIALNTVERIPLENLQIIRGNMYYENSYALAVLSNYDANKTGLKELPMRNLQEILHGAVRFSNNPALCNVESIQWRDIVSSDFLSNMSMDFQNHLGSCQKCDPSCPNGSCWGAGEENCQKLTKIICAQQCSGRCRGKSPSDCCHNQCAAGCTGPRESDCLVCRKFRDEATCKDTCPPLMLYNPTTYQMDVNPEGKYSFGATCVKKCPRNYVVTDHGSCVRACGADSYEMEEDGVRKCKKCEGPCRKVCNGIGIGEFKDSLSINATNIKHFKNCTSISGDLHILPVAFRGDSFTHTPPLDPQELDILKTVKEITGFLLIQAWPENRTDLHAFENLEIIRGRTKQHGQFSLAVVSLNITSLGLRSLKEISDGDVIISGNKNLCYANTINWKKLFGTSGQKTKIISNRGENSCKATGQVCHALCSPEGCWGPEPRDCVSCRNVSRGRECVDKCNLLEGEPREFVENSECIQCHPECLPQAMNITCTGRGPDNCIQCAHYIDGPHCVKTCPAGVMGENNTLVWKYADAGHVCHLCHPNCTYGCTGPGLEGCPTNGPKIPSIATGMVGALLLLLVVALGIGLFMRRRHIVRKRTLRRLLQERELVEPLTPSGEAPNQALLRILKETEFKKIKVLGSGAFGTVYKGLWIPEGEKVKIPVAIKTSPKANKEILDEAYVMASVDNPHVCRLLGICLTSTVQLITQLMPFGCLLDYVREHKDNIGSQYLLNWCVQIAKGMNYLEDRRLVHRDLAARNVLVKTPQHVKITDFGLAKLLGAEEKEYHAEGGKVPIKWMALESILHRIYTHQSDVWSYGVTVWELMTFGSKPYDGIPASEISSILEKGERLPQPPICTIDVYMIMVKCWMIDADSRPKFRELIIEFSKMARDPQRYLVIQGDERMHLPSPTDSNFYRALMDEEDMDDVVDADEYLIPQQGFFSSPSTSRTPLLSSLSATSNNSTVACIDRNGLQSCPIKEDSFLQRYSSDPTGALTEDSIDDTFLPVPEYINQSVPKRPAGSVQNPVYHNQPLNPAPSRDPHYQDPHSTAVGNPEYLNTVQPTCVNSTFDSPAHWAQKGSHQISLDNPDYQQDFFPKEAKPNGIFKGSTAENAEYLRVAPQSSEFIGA
T1 sequence (P00533 25-1210 L858R): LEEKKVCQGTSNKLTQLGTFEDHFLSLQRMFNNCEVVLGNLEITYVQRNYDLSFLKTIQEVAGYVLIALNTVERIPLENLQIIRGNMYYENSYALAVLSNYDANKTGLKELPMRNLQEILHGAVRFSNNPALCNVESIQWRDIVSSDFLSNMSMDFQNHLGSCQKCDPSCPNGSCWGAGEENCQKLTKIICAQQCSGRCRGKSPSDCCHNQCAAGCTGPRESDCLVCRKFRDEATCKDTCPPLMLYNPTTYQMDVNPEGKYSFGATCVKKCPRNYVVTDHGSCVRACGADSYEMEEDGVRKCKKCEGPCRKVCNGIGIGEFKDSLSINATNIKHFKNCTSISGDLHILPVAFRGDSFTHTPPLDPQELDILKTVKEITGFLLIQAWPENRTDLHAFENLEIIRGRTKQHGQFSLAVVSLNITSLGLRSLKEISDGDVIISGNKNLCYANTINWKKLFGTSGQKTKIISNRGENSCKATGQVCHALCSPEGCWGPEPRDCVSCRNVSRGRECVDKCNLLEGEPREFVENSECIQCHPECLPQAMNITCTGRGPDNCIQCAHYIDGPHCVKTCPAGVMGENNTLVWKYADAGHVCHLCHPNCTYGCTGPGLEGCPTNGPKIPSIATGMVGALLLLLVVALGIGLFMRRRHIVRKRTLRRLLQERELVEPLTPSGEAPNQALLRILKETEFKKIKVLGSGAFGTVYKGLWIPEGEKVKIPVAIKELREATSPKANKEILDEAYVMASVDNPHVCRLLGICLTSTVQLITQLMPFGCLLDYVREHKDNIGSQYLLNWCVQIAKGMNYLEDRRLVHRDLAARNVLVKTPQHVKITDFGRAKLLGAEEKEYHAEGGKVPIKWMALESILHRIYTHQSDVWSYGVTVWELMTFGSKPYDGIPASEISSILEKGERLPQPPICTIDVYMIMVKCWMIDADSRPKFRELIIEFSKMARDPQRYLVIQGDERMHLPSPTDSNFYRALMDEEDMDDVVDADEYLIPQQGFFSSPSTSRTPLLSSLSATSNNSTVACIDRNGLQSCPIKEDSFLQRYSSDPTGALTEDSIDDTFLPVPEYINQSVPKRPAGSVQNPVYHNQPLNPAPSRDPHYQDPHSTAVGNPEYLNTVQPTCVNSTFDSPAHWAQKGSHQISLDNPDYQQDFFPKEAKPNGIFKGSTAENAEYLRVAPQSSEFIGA

`COc1cn(C)nc1-c1cc(OC2CCN(C)CC2)c2c(Nc3ccc4ncsc4c3)ncnc2c1` [Example 131, N-(7-(4-methoxy-1-methyl-1H-pyrazol-3-yl)-5-((1-methylpiperidin-4-yl)oxy)quinazolin-4-yl)benzo[d]thiazol-6-amine]: the IC50 on EGFR L858R was 10.1 to 50 nM; on EGFR (d746-750), no more than 10 nM; in assay [1], 10.1 to 50 nM.
Consider `CO[C@@H]1CNCC[C@H]1Oc1cc(-c2cnn(C)c2)cc2ncnc(Nc3ccc4ncsc4c3)c12` (single isomer, unassigned) [Example A42], for which the IC50 (on EGFR L858R; on EGFR (d746-750); in assay [1]) was no more than 10 nM in each case.
For `CO[C@H]1COC[C@@H]1Oc1cc(-c2cnn(C)c2)cc2ncnc(Nc3ccc4ncsc4c3)c12` (single isomer, unassigned) [Example A31], the IC50 on EGFR L858R is no more than 10 nM; at EGFR (d746-750), no more than 10 nM; in assay [1], 10.1 to 50 nM.
As for `CN1CC[C@@H](Nc2cc3c(Nc4ccc5ncsc5c4)ncnc3cc2-c2cnn(C)c2)[C@H](F)C1` (single isomer, unassigned) [Example 326], the IC50 (at EGFR L858R; at EGFR (d746-750); in assay [1]) was no more than 10 nM each time.
Consider `Cn1cc(-c2cc(O[C@@H]3CCNC[C@H]3F)c3c(Nc4ccc5ncsc5c4F)ncnc3c2)cn1` [Example 348, 7-fluoro-N-(5-(((3R,4R)-3-fluoropiperidin-4-yl)oxy)-7-(1-methyl-1H-pyrazol-4-yl)quinazolin-4-yl)benzo[d]thiazol-6-amine], for which the IC50 (at EGFR L858R; on EGFR (d746-750); in assay [1]) was no more than 10 nM throughout.
With `C[C@@H](Oc1cc(N2CCN(C)CC2)cc2ncnc(Nc3ccc4ncsc4c3F)c12)[C@H]1CCCO1` [Example 115, 7-fluoro-N-(7-(4-methylpiperazin-1-yl)-5-((R)-1-((R)-tetrahydrofuran-2-yl)ethoxy)quinazolin-4-yl)benzo[d]thiazol-6-amine], the IC50 (on EGFR L858R; on EGFR (d746-750); in assay [1]) was no more than 10 nM in each case.
`C[C@@H](Oc1cc(N2CCN(C)CC2)cc2ncnc(Nc3ccc4ncsc4c3F)c12)[C@@H]1CCCO1` [Example 114, 7-fluoro-N-(7-(4-methylpiperazin-1-yl)-5-((R)-1-((S)-tetrahydrofuran-2-yl)ethoxy)quinazolin-4-yl)benzo[d]thiazol-6-amine]: the IC50 at EGFR L858R is no more than 10 nM; on EGFR (d746-750) it was no more than 10 nM; in assay [1] it was 10.1 to 50 nM.
With `COC[C@@H](C)Oc1cc(-n2cc([C@H](C)O)cn2)cc2ncnc(Nc3ccc4ncsc4c3F)c12` [Example A20, (S)-1-(1-(4-((7-fluorobenzo[d]thiazol-6-yl)amino)-5-(((R)-1-methoxypropan-2-yl)oxy)quinazolin-7-yl)-1H-pyrazol-4-yl)ethan-1-ol, OR (R)-1-(1-(4-((7-fluorobenzo[d]thiazol-6-yl)amino)-5-(((R)-1-methoxypropan-2-yl)oxy)quinazolin-7-yl)-1H-pyrazol-4-yl)ethan-1-ol], the IC50 (at EGFR L858R; at EGFR (d746-750); in assay [1]) was no more than 10 nM throughout.
For the compound `COC[C@H](C)Oc1cc(N2CCN(C(C)C)C2=O)cc2ncnc(Nc3ccc4ncsc4c3)c12` (single isomer, unassigned) [Example 118], the IC50 (on EGFR L858R; at EGFR (d746-750); in assay [1]) was no more than 10 nM each time.
Take `CC(CN(C)C)Oc1cc(N2CC(C)OC(C)C2)cc2ncnc(Nc3ccc4ncsc4c3)c12` (single isomer, unassigned) [Example 150]: the IC50 at EGFR L858R was 10.1 to 50 nM; at EGFR (d746-750) it was no more than 10 nM; in assay [1] it was no more than 10 nM.
Take `C[C@H](CN(C)C)Oc1cc(N2CC[C@H](C(C)(C)O)C2)cc2ncnc(Nc3ccc4ncsc4c3)c12` [Example 181, 2-((S)-1-(4-(benzo[d]thiazol-6-ylamino)-5-(((R)-1-(dimethylamino)propan-2-yl)oxy)quinazolin-7-yl)pyrrolidin-3-yl)propan-2-ol]: the half-inhibitory concentration (IC50) (on EGFR L858R; at EGFR (d746-750); in assay [1]) was no more than 10 nM each time.
As to `CCN1CCC(Oc2cc(-c3cnn(C)c3)cc3ncnc(Nc4ccc5ncsc5c4)c23)C1=O` (racemic) [Example 58, (rac)-3-((4-(benzo[d]thiazol-6-ylamino)-7-(1-methyl-1H-pyrazol-4-yl)quinazolin-5-yl)oxy)-1-ethylpyrrolidin-2-one], the IC50 (on EGFR L858R; at EGFR (d746-750); in assay [1]) was no more than 10 nM each time.
Take `CC(C)N1CCC(Oc2cc(-c3cnn(C)c3)cc3ncnc(Nc4ccc5ncsc5c4)c23)C1=O` (racemic) [Example 62, (rac)-3-((4-(benzo[d]thiazol-6-ylamino)-7-(1-methyl-1H-pyrazol-4-yl)quinazolin-5-yl)oxy)-1-isopropylpyrrolidin-2-one]: the IC50 (at EGFR L858R; on EGFR (d746-750); in assay [1]) was no more than 10 nM each time.
Consider `Cn1cc(-c2cc(O[C@H]3C[C@@H](O)C3)c3c(Nc4ccc5ncsc5c4)ncnc3c2)cn1` [Example 20, cis-3-((4-(benzo[d]thiazol-6-ylamino)-7-(1-methyl-1H-pyrazol-4-yl)quinazolin-5-yl)oxy)cyclobutan-1-ol], for which the IC50 (on EGFR L858R; on EGFR (d746-750); in assay [1]) was no more than 10 nM each time.
Take `CN1CC[C@H](Oc2cc(-c3cnn(C)c3)cc3ncnc(Nc4ccc5ncsc5c4)c23)C[C@H]1CO` [Example A07, ((2S,4S)-4-((4-(benzo[d]thiazol-6-ylamino)-7-(1-methyl-1H-pyrazol-4-yl)quinazolin-5-yl)oxy)-1-methylpiperidin-2-yl)methanol]: the values for the IC50 (at EGFR L858R; on EGFR (d746-750); in assay [1]) were no more than 10 nM, no more than 10 nM and 10.1 to 50 nM, respectively.
As to `C[C@@H]1CN(c2cc(O[C@H](C)C3COC3)c3c(Nc4ccc5ncsc5c4)ncnc3c2)C[C@H](C)O1` [Example 193, N-(7-((2S,6R)-2,6-dimethylmorpholino)-5-((R)-1-(oxetan-3-yl)ethoxy)quinazolin-4-yl)benzo[d]thiazol-6-amine], the IC50 (at EGFR L858R; at EGFR (d746-750); in assay [1]) was no more than 10 nM throughout.
For the compound `COc1nn(C)cc1-c1cc(OC2CCN(C)CC2)c2c(Nc3ccc4ncsc4c3F)ncnc2c1` [Example 320, 7-fluoro-N-(7-(3-methoxy-1-methyl-1H-pyrazol-4-yl)-5-((1-methylpiperidin-4-yl)oxy)quinazolin-4-yl)benzo[d]thiazol-6-amine], the IC50 is no more than 10 nM on EGFR L858R, no more than 10 nM on EGFR (d746-750) and 10.1 to 50 nM in assay [1].
With `CCC(=O)N1CCC(Oc2cc3c(Nc4ccc5ncsc5c4)ncnc3cc2OC)CC1` [Example 260, 1-(4-((4-(benzo[d]thiazol-6-ylamino)-7-methoxyquinazolin-6-yl)oxy)piperidin-1-yl)propan-1-one], the IC50 at EGFR L858R is no more than 10 nM; at EGFR (d746-750), no more than 10 nM; in assay [1], 10.1 to 50 nM.
In the case of `COc1cc(O[C@H](C)CN(C)C)c2c(Nc3ccc4ncsc4c3F)ncnc2c1` [Example 146, (R)-N-(5-((1-(dimethylamino)propan-2-yl)oxy)-7-methoxyquinazolin-4-yl)-7-fluorobenzo[d]thiazol-6-amine], the figures for the IC50 (on EGFR L858R; on EGFR (d746-750); in assay [1]) were 10.1 to 50 nM, no more than 10 nM and 10.1 to 50 nM, respectively.
With `Cc1cn(-c2cc(O[C@H](C)C3COC3)c3c(Nc4ccc5ncsc5c4)ncnc3c2)c(=O)n1C` [Example 202, (R)-1-(4-(benzo[d]thiazol-6-ylamino)-5-(1-(oxetan-3-yl)ethoxy)quinazolin-7-yl)-3,4-dimethyl-1,3-dihydro-2H-imidazol-2-one], the IC50 (at EGFR L858R; at EGFR (d746-750); in assay [1]) was no more than 10 nM each time.
As for `CO[C@H]1CCN(c2cc(O[C@H](C)C3COC3)c3c(Nc4ccc5ncsc5c4)ncnc3c2)C1` [Example 197, N-(7-((S)-3-methoxypyrrolidin-1-yl)-5-((R)-1-(oxetan-3-yl)ethoxy)quinazolin-4-yl)benzo[d]thiazol-6-amine], the IC50 (on EGFR L858R; at EGFR (d746-750); in assay [1]) was no more than 10 nM in each case.
As to `CN1C[C@H](F)[C@H](Oc2cc(-c3cnn(C)c3)cc3ncnc(Nc4ccc5ncsc5c4)c23)C1` (single isomer, unassigned) [Example 380], the figures for the IC50 (on EGFR L858R; on EGFR (d746-750); in assay [1]) were no more than 10 nM, no more than 10 nM and 10.1 to 50 nM, respectively.
On to `COc1nn(C)cc1-c1cc(O[C@@H]2CCN(C)C[C@H]2F)c2c(Nc3ccc4ncsc4c3F)ncnc2c1` [Example 351, 7-fluoro-N-(5-(((3R,4R)-3-fluoro-1-methylpiperidin-4-yl)oxy)-7-(3-methoxy-1-methyl-1H-pyrazol-4-yl)quinazolin-4-yl)benzo[d]thiazol-6-amine], for which the IC50 (at EGFR L858R; at EGFR (d746-750); in assay [1]) was no more than 10 nM throughout.
In the case of `COCCOc1cc(O[C@H](C)C2COC2)c2c(Nc3ccc4ncsc4c3)ncnc2c1` [Example 126, (R)-N-(7-(2-methoxyethoxy)-5-(1-(oxetan-3-yl)ethoxy)quinazolin-4-yl)benzo[d]thiazol-6-amine], the IC50 (on EGFR L858R; on EGFR (d746-750); in assay [1]) was no more than 10 nM throughout.
